According to patent publication US20210290680A1, “METHODS AND COMPOSITIONS FOR MODULATING CELLULAR AGING” (Dorian Therapeutics, Inc., priority 2019, published 2021):

Columns and labels:
Assay type in all cases: cell-based, human
NALM cells = experiment: Re-challenge cytotoxicity assay, CD19.CAR T cells; details: after double tumor-challenge, n=3
Method: (§1) Primary T cells were activated as described (Example 3), transduced with a lentivirus encoding for either a CD19.CAR or a GD2.CAR co-expressing shUSP16 #1, shUSP16 #2 or a scrambled shRNA (Control). Cells were cultured in IL-2 and sorted between days 6-13 for EGFRt. At day 16 cytotoxicity assays were performed. Briefly, cells were counted and 100,000 T cells (adjusted for EGFR expression) were plated at 1:5 Effector:Target (E:T) ratio. At 72 hours, the mixture of tumor cells and T cells were collected, stained for CD3-PE, CD8-BV510, CD19- or GD2-APC, EGFR-AF488 and Sytox and counted by flow cytometry (MACSQuant, Miltenyi Biotec) (FIGS. 30A and 30B). Counting beads (CountBright Absolute Counting beads, Invitrogen) were added before acquisition and absolute number was calculated as following (number of cell events/number of bead events)×(assigned bead count of the lot (beads/50 ul)/volume of sample (ul))=concentration of sample as cells/ul). NALM cells were used as target cells for CD19.CAR T cells and CHLA-55 cells were used as target for GD2.CAR T cells. Three different primary T cell cultures were tested for CD19 and GD2 CAR.
At day 16, regular cytotoxicity assays were also performed (Example 22). Three days post-antigen stimulation, CD19.CAR T cells were stained for EGFR-AF488 (R&D), CD3-PE, CD8-BV510, PD-1-Allophycocyanin and Lag-3 and CTLA4 (Biolegend) and acquired by MACSQuant (Miltenyi Biotec). The co-cultures we also re-challenged with the addition of fresh tumor cells. T cell killing and expansion upon double tumor-challenge was assessed after three days.

CDKN1A = experiment: qPCR of senescence marker CDKN1A; details: for CDKN1A expression, fold change vs Control: day 15, n=4; for decrease of senescence marker CDKN1A (Ctrl vs shRNA): primary T cells, day 15
Description: A new set of shRNAs were cloned into the pSIH backbone, where the shRNA expression is driven by the H1 promoter. The vector was also engineered to co-express GFP and Puromycin resistance through a T2A sequence. The new shRNA sequences were: shUSP16 #1 5′-[…]-3′ (SEQ ID NO: 8) and shUSP16 #2 5′-[…]-3′ (SEQ ID NO: 9). Primary T cells were activated as described (Example 3), transduced with a lentivirus encoding either a shUSP16 #1, shUSP16 #2 or a scrambled shRNA (Control) and cells were selected with puromycin at day 6. Between 1 and 1.25×10^6 cells were plated post-puromycin selection with a purity higher than 90% and counted every 2-4 days by Trypan Blue exclusion using Vi-CELL XR cell counter (Beckman Coulter). qPCR was performed to verify downregulation of USP16 expression (FIG. 14A) and the expression of the senescent marker CDKN1A (FIG. 14B) at day 15. Proliferation was measured as fold increased compared to shControl at day 15 post-activation. The experiment was repeated using primary T cells obtained from buffy coats of 3 different healthy donors.
(§2) Primary T cells were activated as described (Example 3), transduced with a lentivirus encoding for either a CD19.CAR or a GD2.CAR co-expressing shUSP16 #1, shUSP16 #2 or a scrambled shRNA (Control). Fifteen days post-activation, T cells were collected and qPCR performed. TaqMan probes detecting CDKN1A, CDKN2A (FIGS. 26A and 26B) (fold change GD2.CAR (n=4): CDKN1A Control vs shUSP #1: 0.4360, p<0.0001, and Control vs shUSP16 #2: 3.036, p=0.004 respectively. Fold change CD19.CAR (n=4): CDKN2a, CDKN1A Control vs shUSP #1: 0.6906, p=0.0026; 0.7228, p=0.0297 and Control vs shUSP16 #2: 0.8385, p=0.2325; 0.7017, p=0.0021), TCF7, LEF1, and Axin-2 (FIGS. 27A and B) were analyzed in GD2.CAR and CD19.CAR-expressing cells, respectively. ACTB was used as internal control. (GD2.CAR (n=4) TCF7, LEF1 and Axin-2: Control vs shUSP #1: 1.914 p=0.0512; 1.795 p=0.0323; 3.269 p=0.15 and Control vs shUSP16 #2: 1.284 p=0.0494; 1.718 p=0.0586; 2.035p=0.235, respectively. Fold change CD19.CAR (n=4): TCF7, LEF1 and Axin-2: Control vs shUSP #1: 1.528, p=0.0277; 1.82, p=0.0449; 1.998, p=0.031 and Control vs shUSP16 #2: 1.18, p=0.2002; 1.579, p=0.0632; 1.261, p=0.2382). USP16 downregulation in CAR-T cells results in a decreased expression of senescence markers and an increase in the expression of genes associated with the activation/increased signaling of the WNT pathway, indicating its importance in delaying cellular senescence and increasing self-renewal.

CHLA-55 cells = experiment: CAR-T in vitro cytotoxicity assay, GD2.CAR T cells; details: 1:5 E:T, 72 hours, n=3
Method: as §1

TCF7 = experiment: qPCR of WNT pathway regulator TCF7; details: for TCF7 expression, fold change vs Control: CD19.CAR; for TCF7 expression, fold change vs Control / TCF7 expression vs Control: day 15, n=4; for TCF7 expression vs Control: GD2.CAR; for TCF7 expression, fold increase over Control: primary T cells, day 15
Description: Primary T cells were activated as described (Example 3), transduced with a lentivirus encoding either a shUSP16 #1, shUSP16 #2 or a non-targeting shRNA (shCtrl) and cells were selected with puromycin at day 6. At day 15 cell were collected and analyzed by qPCR for the expression of LEF1 (FIG. 16A) and TCF7 (FIG. 16B), downstream regulators of the WNT pathway. At day 20, cells were stained for CD4-PE, CD8-BV510, CD62L-Allophycocyanin and CD45RA-APC-Cy7 (Biolegend). Stem cell memory T cells (Tscm) were identified as Sytox^− GFP^+CD45RA^+CD62L^+, central memory T cells (Tcm) as Sytox^−GFP^+CD45RA^−CD62L^+, effector memory T cells (Tem) as Sytox^−GFP^+CD45RA^−CD62L^−, and terminal effector T cell (Teff) as Sytox^−GFP^+CD45RA^+CD62L^− (FIG. 17A). Cells were gated on the CD8 population. The specific increase of Tscm was shown as phenotype ratio (FIG. 17B).
as §2

Substance	T cell number (NALM cells)	residual tumor cells (NALM) (NALM cells)	CDKN1A expression, fold change vs Control (CDKN1A; CD19.CAR)	CDKN1A expression, fold change vs Control (CDKN1A; GD2.CAR)	decrease of senescence marker CDKN1A (Ctrl vs shRNA) (CDKN1A)	CHLA-55 residual cells (CHLA-55 cells)	T cell number (CHLA-55 cells)	TCF7 expression, fold change vs Control (TCF7)	TCF7 expression vs Control (TCF7)	TCF7 expression, fold increase over Control (TCF7)
shUSP16 #1: shRNA targeting USP16, 5′-GACTGTAAGACTGACAATAAA-3′ (SEQ ID NO: 8), pSIH backbone or co-expressed in CAR plasmid	192643	282761	0.7228	0.4360	23%	159531	79566	1.528	1.914	2.804
shUSP16 #2: shRNA targeting USP16, 5′-TATATCAGTTCACCCGTAAT-3′ (SEQ ID NO: 9), pSIH backbone or co-expressed in CAR plasmid	204291	160874	0.7017	3.036	37%	129186	194025	1.18	1.284	1.428
